The numbers were not newly measured in US20060172402A1, “Production of vanillin in microbial cells” (priority 2002, published 2006), which cites them from elsewhere.

In the data set the test system is tobacco class II COMT. The following applies: Maury et al., 1999.

`O=C(O)/C=C/c1ccc(O)c(O)c1` [Caffeic acid]: the “activity of the enzyme against the substrate” value (shortened to “activity of the enzyme”) is reported as “no activity”. With `O=Cc1ccc(O)c(O)c1` [3,4-Dihydioxybenzaldehyde, 3,4-dihydroxybenzaldehyde], the “activity of the enzyme” value is “did have activity”. Take `COc1cc(/C=C/C(=O)O)cc(O)c1O` [5-OH-Ferulic acid]: the “activity of the enzyme” value is on record as “no activity”.
